What follows are molecules tested against T1, recombinant human NK3 receptor (Homo sapiens, UniProt P29371) (assay: [3H]SR142801 competition binding assay). Conditions: [3H]SR142801, membranes from HEK293 cells transiently expressing recombinant human NK3 receptor; read-out: hNK3 Ki.
T1 construct: expressed in transfected cells; host or cells: HEK293 cells (transient expression), membranes
T1 sequence (P29371 1-465): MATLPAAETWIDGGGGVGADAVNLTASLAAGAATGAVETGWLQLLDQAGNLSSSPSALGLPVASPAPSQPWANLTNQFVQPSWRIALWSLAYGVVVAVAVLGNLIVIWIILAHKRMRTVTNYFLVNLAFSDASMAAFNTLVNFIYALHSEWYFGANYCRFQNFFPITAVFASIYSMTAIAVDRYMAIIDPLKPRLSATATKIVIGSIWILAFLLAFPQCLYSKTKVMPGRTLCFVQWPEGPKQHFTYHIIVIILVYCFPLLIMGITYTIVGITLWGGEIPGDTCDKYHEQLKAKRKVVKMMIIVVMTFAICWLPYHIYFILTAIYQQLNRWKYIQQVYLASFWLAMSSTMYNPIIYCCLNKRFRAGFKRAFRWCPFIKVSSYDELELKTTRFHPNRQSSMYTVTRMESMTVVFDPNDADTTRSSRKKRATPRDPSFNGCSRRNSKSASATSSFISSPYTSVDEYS
Method: [^3H]SR142801 Competition Binding Assay
hNK3 receptor binding experiment were performed using [^3H]SR142801 (Catalog No. TRK1035, specific activity: 74.0 Ci/mmol, Amersham, GE Healthcare UK limited, Buckinghamshire, UK) and membrane isolated from HEK293 cells transiently expressing recombinant human NK3 receptor. After thawing, the membrane homogenates were centrifuged at 48,000×g for 10 min at 4° C., the pellets were resuspended in the 50 mM Tris-HCl, 4 mM MnCl2, 1 μM phosphoramidon, 0.1% BSA binding buffer at pH 7.4 to a final assay concentration of 5 μg protein/well. For inhibition experiments, membranes were incubated with [^3H]SR142801 at a concentration equal to KD value of radioligand and 10 concentrations of the inhibitory compound (0.0003-10 μM) (in a total reaction volume of 500 μl) for 75 min at room temperature (RT). At the end of the incubation, membranes were filtered onto unitfilter (96-well white microplate with bonded GF/C filter preincubated 1 h in 0.3% PEI+0.3% BSA, Packard BioScience, Meriden, Conn.) with a Filtermate 196 harvester (Packard BioScience) and washed 4 times with ice-cold 50 mM Tris-HCl, pH 7.4 buffer. Nonspecific binding was measured in the presence of 10 μM SB222200 for both radioligands. The radioactivity on the filter was counted (5 min) on a Packard Top-count microplate scintillation counter with quenching correction after addition of 45 μl of microscint 40 (Canberra Packard S. A., Zürich, Switzerland) and shaking for 1 h. Inhibition curves were fitted according to the Hill equation: y=100/(1+(x/IC50)^nH), where nH=slope factor using Excel-fit 4 software (Microsoft). IC50 values were derived from the inhibition curve and the affinity constant (Ki) values were calculated using the Cheng-Prussoff equation Ki=IC50/(1+[L]/KD) where [L] is the concentration of radioligand and KD is its dissociation constant at the receptor, derived from the saturation isotherm. All experiments were performed in duplicate and the mean±standard error (SEM) of the individual Ki values was calculated.

| Ki [nM] | Structure (SMILES) |
| --- | --- |
| 201 | CN(Cc1ccc(-c2ccncc2)cc1)C(=O)C(C)(CCN1CCN(S(C)(=O)=O)CC1)c1ccc(Cl)c(Cl)c1 (stereo not drawn) [Example 23, 2-(3,4-Dichloro-phenyl)-4-(4-methanesulfonyl-piperazin-1-yl)-2,N-dimethyl-N-(4-pyridin-4-yl-benzyl)-butyramide] |
| 31.2 | CN(Cc1ccccc1Cl)C(=O)C(C)(CCN1CCCN(S(C)(=O)=O)CC1)c1ccc(Cl)c(Cl)c1 (stereo not drawn) [Example 121, N-(2-Chloro-benzyl)-2-(3,4-dichloro-phenyl)-4-(4-methanesulfonyl-[1,4]diazepan-1-yl)-2,N-dimethyl-butyramide] |
| 107 | C[C@H]1CN(CCC(C)(C(=O)N(C)Cc2cccc(Cl)c2)c2ccc(Cl)c(Cl)c2)CCN1S(C)(=O)=O (stereo partly drawn) [Example 88, N-(3-Chloro-benzyl)-2-(3,4-dichloro-phenyl)-4-((S)-4-methanesulfonyl-3-methyl-piperazin-1-yl)-2,N-dimethyl-butyramide] |
| 15.4 | CC(CCN1CCN2C(CCS2(=O)=O)C1)(C(=O)N[C@@H](CO)c1ccc(Cl)cc1)c1ccc(Cl)c(Cl)c1 (stereo partly drawn) [Example 136, N-[(R)-1-(4-Chloro-phenyl)-2-hydroxy-ethyl]-2-(3,4-dichloro-phenyl)-4-(1,1-dioxo-hexahydro-1λ^6-thia-5,7a-diaza-inden-5-yl)-2-methyl-butyramide] |
| 107 | CC(CCN1CCCN(S(C)(=O)=O)CC1)(C(=O)NCc1ccc(C#N)cc1)c1ccc(Cl)c(Cl)c1 (stereo not drawn) [Example 124, N-(4-Cyano-benzyl)-2-(3,4-dichloro-phenyl)-4-(4-methanesulfonyl-[1,4]diazepan-1-yl)-2-methyl-butyramide] |
| 275 | COc1cc(CN(C)C(=O)C(C)(CCN2CCN(S(C)(=O)=O)CC2)c2ccc(Cl)c(Cl)c2)ccc1OC(F)F (stereo not drawn) [Example 26, 2-(3,4-Dichloro-phenyl)-N-(4-difluoromethoxy-3-methoxy-benzyl)-4-(4-methanesulfonyl-piperazin-1-yl)-2,N-dimethyl-butyramide] |
| 300 | C[C@H]1CN(CCC(C)(C(=O)NCc2cccc(OC(F)F)c2)c2ccc(Cl)c(Cl)c2)CCN1S(C)(=O)=O (stereo partly drawn) [Example 73, 2-(3,4-Dichloro-phenyl)-N-(3-difluoromethoxy-benzyl)-4-((S)-4-methanesulfonyl-3-methyl-piperazin-1-yl)-2-methyl-butyramide] |
| 19.2 | C[C@H]1CN(CCC(C)(C(=O)N(C)Cc2ccc(C(F)(F)F)c(F)c2)c2ccc(Cl)c(Cl)c2)CCN1S(C)(=O)=O (stereo partly drawn) [Example 70, 2-(3,4-Dichloro-phenyl)-N-(3-fluoro-4-trifluoromethyl-benzyl)-4-((S)-4-methanesulfonyl-3-methyl-piperazin-1-yl)-2,N-dimethyl-butyramide] |
| 266 | C[C@H]1CN(CCC(C)(C(=O)N(C)Cc2cccc(F)c2)c2ccc(Cl)c(Cl)c2)CCN1S(C)(=O)=O (stereo partly drawn) [Example 89, 2-(3,4-Dichloro-phenyl)-N-(3-fluoro-benzyl)-4-((S)-4-methanesulfonyl-3-methyl-piperazin-1-yl)-2,N-dimethyl-butyramide] |
| 12.6 | C[C@@H]1CN(CCC(C)(C(=O)N(C)Cc2ccc(Cl)c(C(F)(F)F)c2)c2ccc(Cl)c(Cl)c2)CCN1S(C)(=O)=O (stereo partly drawn) [Example 39, N-(4-Chloro-3-trifluoromethyl-benzyl)-2-(3,4-dichloro-phenyl)-4-((R)-4-methanesulfonyl-3-methyl-piperazin-1-yl)-2,N-dimethyl-butyramide] |
| 234 | COc1ccc(C(NC(=O)C(C)(CCN2CCN(S(C)(=O)=O)CC2)c2ccc(Cl)c(Cl)c2)C2CC2)cc1 (stereo not drawn) [Example 15, N-[Cyclopropyl-(4-methoxy-phenyl)-methyl]-2-(3,4-dichloro-phenyl)-4-(4-methanesulfonyl-piperazin-1-yl)-2-methyl-butyramide] |
| 66.4 | CN(Cc1ccc(Cl)cc1)C(=O)C(C)(CCN1CCN(S(C)(=O)=O)CC1)c1ccc(Cl)c(Cl)c1 (stereo not drawn) [Example 12, N-(4-Chloro-benzyl)-2-(3,4-dichloro-phenyl)-4-(4-methanesulfonyl-piperazin-1-yl)-2,N-dimethyl-butyramide] |
| 66.3 | C[C@H]1CN(CCC(C)(C(=O)N(C)Cc2ccc(Cl)cc2)c2ccc(Cl)c(Cl)c2)CCN1S(C)(=O)=O (stereo partly drawn) [Example 86, N-(4-Chloro-benzyl)-2-(3,4-dichloro-phenyl)-4-((S)-4-methanesulfonyl-3-methyl-piperazin-1-yl)-2,N-dimethyl-butyramide] |
| 545 | C[C@@H]1CN(CCC(C)(C(=O)NCc2ccc3nccnc3c2)c2ccc(Cl)c(Cl)c2)CCN1S(C)(=O)=O (stereo partly drawn) [Example 38, 2-(3,4-Dichloro-phenyl)-4-((R)-4-methanesulfonyl-3-methyl-piperazin-1-yl)-2-methyl-N-quinoxalin-6-ylmethyl-butyramide] |
| 88 | C[C@@H]1CN(CCC(C)(C(=O)N(C)Cc2ccccc2Cl)c2ccc(Cl)c(Cl)c2)CCN1S(C)(=O)=O (stereo partly drawn) [Example 49, N-(2-Chloro-benzyl)-2-(3,4-dichloro-phenyl)-4-((R)-4-methanesulfonyl-3-methyl-piperazin-1-yl)-2,N-dimethyl-butyramide] |
| 45.2 | C[C@H]1CN(CCC(C)(C(=O)NCc2ccc(Cl)c(C(F)(F)F)c2)c2ccc(Cl)c(Cl)c2)CCN1S(C)(=O)=O (stereo partly drawn) [Example 84, N-(4-Chloro-3-trifluoromethyl-benzyl)-2-(3,4-dichloro-phenyl)-4-((S)-4-methanesulfonyl-3-methyl-piperazin-1-yl)-2-methyl-butyramide] |
| 311 | C[C@H]1CN(CCC(C)(C(=O)NCc2cc(C(F)(F)F)ccc2F)c2ccc(Cl)c(Cl)c2)CCN1S(C)(=O)=O (stereo partly drawn) [Example 76, 2-(3,4-Dichloro-phenyl)-N-(2-fluoro-5-trifluoromethyl-benzyl)-4-((S)-4-methanesulfonyl-3-methyl-piperazin-1-yl)-2-methyl-butyramide] |
| 355 | CN(Cc1ccccc1)C(=O)C(CCN1CCN(S(C)(=O)=O)CC1)c1ccc(Cl)c(Cl)c1 (stereo not drawn) [Example 4, N-Benzyl-2-(3,4-dichloro-phenyl)-4-(4-methanesulfonyl-piperazin-1-yl)-N-methyl-butyramide] |
| 485 | C[C@@H]1CN(CCC(C)(C(=O)NCc2ccc(N(C)C)cc2)c2ccc(Cl)c(Cl)c2)CCN1S(C)(=O)=O (stereo partly drawn) [Example 37, 2-(3,4-Dichloro-phenyl)-N-(4-dimethylamino-benzyl)-4-((R)-4-methanesulfonyl-3-methyl-piperazin-1-yl)-2-methyl-butyramide] |
| 103 | C[C@@H]1CN(CCC(C)(C(=O)N(C)Cc2cccc(Cl)c2)c2ccc(Cl)c(Cl)c2)CCN1S(C)(=O)=O (stereo partly drawn) [Example 59, N-(3-Chloro-benzyl)-2-(3,4-dichloro-phenyl)-4-((R)-4-methanesulfonyl-3-methyl-piperazin-1-yl)-2,N-dimethyl-butyramide] |
| 65.5 | CC(CCN1CCN(S(C)(=O)=O)CC1)(C(=O)NCc1ccc(Cl)c(Cl)c1)c1ccc(Cl)c(Cl)c1 (stereo not drawn) [Example 21, N-(3,4-Dichloro-benzyl)-2-(3,4-dichloro-phenyl)-4-(4-methanesulfonyl-piperazin-1-yl)-2-methyl-butyramide] |
| 15.8 | C[C@@H]1CN(CCC(C)(C(=O)N(C)Cc2ccc(F)c(C(F)(F)F)c2)c2ccc(Cl)c(Cl)c2)CCN1S(C)(=O)=O (stereo partly drawn) [Example 33, 2-(3,4-Dichloro-phenyl)-N-(4-fluoro-3-trifluoromethyl-benzyl)-4-((R)-4-methanesulfonyl-3-methyl-piperazin-1-yl)-2,N-dimethyl-butyramide] |
| 96.5 | CN(Cc1cccc(F)c1)C(=O)C(C)(CCN1CCCN(S(C)(=O)=O)CC1)c1ccc(Cl)c(Cl)c1 (stereo not drawn) [Example 100, 2-(3,4-Dichloro-phenyl)-N-(3-fluoro-benzyl)-4-(4-methanesulfonyl-[1,4]diazepan-1-yl)-2,N-dimethyl-butyramide] |
| 655 | CN(Cc1ccccc1Cl)C(=O)C(CCN1CCN(S(C)(=O)=O)CC1)c1ccc(Cl)c(Cl)c1 (stereo not drawn) [Example 3, N-(2-Chloro-benzyl)-2-(3,4-dichloro-phenyl)-4-(4-methanesulfonyl-piperazin-1-yl)-N-methyl-butyramide] |

Source: patent US7592345B2, “Piperazine and [1,4]diazepan derivatives as NK antagonists” (Hoffmann-La Roche Inc., priority 2007, dated 2009)
